Reference: publication PMC12384447, “Effect of a Novel Antidepressant and Anticancer Nuc01 on Depression in Cancer Survivors” (Current Issues in Molecular Biology, 2025)

Molecular target: T1, LSD1 (lysine-specific demethylase 1) (Homo sapiens, UniProt O60341)
T1 construct: gene KDM1A; residues 172–852
Assay: TR-FRET (LANCE) demethylase assay with biotinylated histone H3K4me1 peptide
Format: biochemical

Structure (SMILES): CN(C)CC(c1ccc(OC(=O)N(C)CCN(C)C2CC2c2ccccc2)cc1)C1(O)CCCCC1 (stereo not shown) [Nuc01]
- IC50: 0.53 µM
